From ChEMBL document CHEMBL4340571, “Investigation of flexibility of neuraminidase 150-loop using tamiflu derivatives in influenza A viruses H1N1 and H5N1” (Bioorg Med Chem, 2019)

Assays:
[1] = Inhibition of Influenza A virus (A/California/07/2009(H1N1)) Neuraminidase N1 at pH 7.4 by DIANA assay
[2] = Selectivity index, ratio of Ki for inhibition of Influenza A virus (A/California/07/2009(H1N1)) Neuraminidase N1 by DIANA assay to Ki for inhibition of influenza A virus chicken/Nakorn- Patom/Thailand/CU-K2-2004 Neuraminidase N1 by DIANA assay
[3] = Inhibition of Influenza A virus (A/California/07/2009(H1N1)) Neuraminidase N1 at pH 6.15 using 4-MUNANA substrate incubated for 20 mins by fluorometric assay

Compound | Ki [1] | Ratio Ki [2] | Ki [3]
CCC(CC)O[C@@H]1C=C(C(=O)O)C[C@H](NCc2cn(CCN3CCS(=O)(=O)CC3)nn2)[C@H]1NC(C)=O | 12 µM | – | –
CCC(CC)O[C@@H]1C=C(C(=O)O)C[C@H](n2cc(CNc3ccccc3)nn2)[C@H]1NC(C)=O | 19 µM | 2 to 4 | –
CCC(CC)O[C@@H]1C=C(C(=O)O)C[C@H](NCc2cn(CC(=O)O)nn2)[C@H]1NC(C)=O | 2.8 µM | – | –
CCC(CC)O[C@@H]1C=C(C(=O)O)C[C@H](n2cc(COCC(C)(CO)CO)nn2)[C@H]1NC(C)=O | 180 µM | 2 to 4 | –
CCC(CC)O[C@@H]1C=C(C(=O)O)C[C@H](n2cc(CNc3ccccc3C(N)=O)nn2)[C@H]1NC(C)=O | 13 µM | 2 to 4 | –
CCC(CC)O[C@H]1CC(C(=O)O)=C[C@@H](n2cc(CN3CCS(=O)(=O)CC3)nn2)[C@@H]1NC(C)=O | 340 µM | 2 to 4 | –
CCC(CC)O[C@@H]1C=C(C(=O)O)C[C@H](n2cc(CN(C)c3ccc(OC)cc3)nn2)[C@H]1NC(C)=O | 19 µM | 2 to 4 | –
CCC(CC)O[C@@H]1C=C(C(=O)O)C[C@H](n2cc(C[C@H](N)C(=O)O)nn2)[C@H]1NC(C)=O | 64 µM | 2 to 4 | –
CCC(CC)O[C@@H]1C=C(C(=O)O)C[C@H](n2cc(CNc3ccc(C(N)=O)c(C(F)(F)F)c3)nn2)[C@H]1NC(C)=O | 14 µM | 2 to 4 | –
CCC(CC)O[C@@H]1C=C(C(=O)O)C[C@H](n2cc(CNc3cc(F)ccc3OC)nn2)[C@H]1NC(C)=O | 22 µM | 2 to 4 | –
CCC(CC)O[C@@H]1C=C(C(=O)O)C[C@H](n2cc(-c3cccs3)nn2)[C@H]1NC(C)=O | 20 µM | 2 to 4 | –
CCC(CC)O[C@@H]1C=C(C(=O)O)C[C@H](n2cc(CO)nn2)[C@H]1NC(C)=O | 12 µM | 2 to 4 | 0.47 µM
CCC(CC)O[C@@H]1C=C(C(=O)O)C[C@H](n2cc(CNc3ccc(NC(C)=O)cc3)nn2)[C@H]1NC(C)=O | 9.1 µM | 2 to 4 | –
CCC(CC)O[C@@H]1C=C(C(=O)O)C[C@H](n2cc(C[C@@]3(C(=O)O)CCCN3)nn2)[C@H]1NC(C)=O | 98 µM | 2 to 4 | –
CCC(CC)O[C@@H]1C=C(C(=O)O)C[C@H](N=[N+]=[N-])[C@H]1NC(C)=O | – | – | 0.91 µM
CCC(CC)O[C@@H]1C=C(C(=O)O)C[C@H](NCc2cn(CCO)nn2)[C@H]1NC(C)=O | 0.75 µM | – | 0.65 µM
CCOC(=O)C1=C[C@@H](OC(CC)CC)[C@H](NC(C)=O)[C@@H](N)C1 [OSELTAMIVIR PHOSPHATE] | 2 µM | – | –
CCC(CC)O[C@@H]1C=C(C(=O)O)C[C@H](n2cc(CNc3cccc(C(F)(F)F)c3)nn2)[C@H]1NC(C)=O | 4.2 µM | 2 to 4 | 0.47 µM
CCC(CC)O[C@@H]1C=C(C(=O)O)C[C@H](NCc2cn(CC(=O)N(C)C)nn2)[C@H]1NC(C)=O | 5.9 µM | – | –
CCC(CC)O[C@@H]1C=C(C(=O)O)C[C@H](NCc2cn(CC(C)(CO)CO)nn2)[C@H]1NC(C)=O | 0.89 µM | – | –
CCC(CC)O[C@@H]1C=C(C(=O)O)C[C@H](N)[C@H]1NC(C)=O [OSELTAMIVIR CARBOXYLATE] | 0.031 µM | – | 0.024 µM
CCC(CC)O[C@@H]1C=C(C(=O)O)C[C@H](n2cc(-c3ccsc3)nn2)[C@H]1NC(C)=O | 16 µM | 2 to 4 | –
CCC(CC)O[C@@H]1C=C(C(=O)O)C[C@H](NCc2cn(CC(=O)NC)nn2)[C@H]1NC(C)=O | 1.2 µM | – | 0.87 µM
